Consider 1 compound from patent US7749540B2, “Compositions comprising modafinil compounds” (Cephalon, Inc., priority 2000, dated 2010).

The subject of data set [1] is monkeys. As to conditions: single administration; cited from earlier work.
Data set [2] concerns mice. As to conditions: single administration; cited from earlier work.
A short description of data set [3]: Water and lipid solubility of modafinil (observation in background).

SMILES strings stand for the structures.

`NC(=O)C[S+]([O-])C(c1ccccc1)c1ccccc1` (stereo not drawn) [modafinil, 2-(benzhydryl-sulfinyl)acetamide]: in data set [1], the nocturnal activity result was “increased nocturnal activity”. Besides, in data set [2], the locomotor activity entry is “increased locomotor activity”. In data set [3], the “water and lipid solubility” value was “very poor”.
